Results on one compound are retold here after PMC10322960 (European Journal of Drug Metabolism and Pharmacokinetics, 2023).

“Also recorded” adds a separate entry of the source.

One data set concerns the target T1, OATP1B1 (Homo sapiens, UniProt Q9Y6L6).
T1 sequence (Q9Y6L6 1-691): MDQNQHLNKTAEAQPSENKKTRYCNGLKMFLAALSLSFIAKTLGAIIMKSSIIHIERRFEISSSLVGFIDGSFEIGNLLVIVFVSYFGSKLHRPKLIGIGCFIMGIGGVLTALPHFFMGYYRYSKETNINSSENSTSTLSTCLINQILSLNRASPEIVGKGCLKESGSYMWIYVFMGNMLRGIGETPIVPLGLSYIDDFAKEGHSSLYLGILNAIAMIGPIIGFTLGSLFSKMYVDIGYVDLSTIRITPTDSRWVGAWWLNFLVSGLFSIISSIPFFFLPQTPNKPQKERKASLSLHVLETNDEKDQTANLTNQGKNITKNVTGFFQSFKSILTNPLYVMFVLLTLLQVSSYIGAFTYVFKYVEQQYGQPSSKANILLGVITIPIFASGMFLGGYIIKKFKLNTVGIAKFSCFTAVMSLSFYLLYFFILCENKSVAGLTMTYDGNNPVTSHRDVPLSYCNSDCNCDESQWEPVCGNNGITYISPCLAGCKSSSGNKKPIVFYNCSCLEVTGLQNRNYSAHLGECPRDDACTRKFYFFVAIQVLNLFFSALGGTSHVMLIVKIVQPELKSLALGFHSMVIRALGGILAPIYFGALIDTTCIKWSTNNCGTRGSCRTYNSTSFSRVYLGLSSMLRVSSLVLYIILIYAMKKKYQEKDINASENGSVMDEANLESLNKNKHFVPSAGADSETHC
The data set is described as follows: OATP1B1 uptake inhibition assay. The data set is classed as in vitro ADME.

For the next data set, the target named is T2, OAT1 (Homo sapiens, UniProt Q4U2R8).
T2 sequence (Q4U2R8 1-563): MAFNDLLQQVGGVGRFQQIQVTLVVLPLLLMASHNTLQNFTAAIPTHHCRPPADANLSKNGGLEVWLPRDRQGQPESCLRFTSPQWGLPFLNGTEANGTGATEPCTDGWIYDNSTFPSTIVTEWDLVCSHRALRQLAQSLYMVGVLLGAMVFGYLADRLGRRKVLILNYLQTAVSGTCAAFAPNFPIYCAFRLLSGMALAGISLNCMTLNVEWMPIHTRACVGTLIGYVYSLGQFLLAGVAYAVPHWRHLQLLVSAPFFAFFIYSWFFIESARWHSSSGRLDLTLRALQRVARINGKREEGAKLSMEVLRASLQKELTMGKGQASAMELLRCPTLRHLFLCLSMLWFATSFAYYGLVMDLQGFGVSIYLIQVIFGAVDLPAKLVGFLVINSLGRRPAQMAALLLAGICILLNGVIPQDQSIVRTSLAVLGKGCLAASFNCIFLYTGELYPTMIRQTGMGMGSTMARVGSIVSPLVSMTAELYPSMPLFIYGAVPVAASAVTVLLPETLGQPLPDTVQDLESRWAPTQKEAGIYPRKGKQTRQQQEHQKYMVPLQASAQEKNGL
Description: OAT1 uptake inhibition assay. Type of data set: in vitro ADME. As to conditions: 0.63–40 μM.

Data set [1] is described as follows: Phase 1 clinical drug–drug interaction study, safety assessment. The data set is classed as in vivo, human.
In a further data set the target is CYP2C9 (Homo sapiens, UniProt P11712). Description: In vitro P450 inhibition, recombinant CYP2C9. The data set is classed as in vitro ADME.
Chain of CYP2C9 (P11712 whole entry): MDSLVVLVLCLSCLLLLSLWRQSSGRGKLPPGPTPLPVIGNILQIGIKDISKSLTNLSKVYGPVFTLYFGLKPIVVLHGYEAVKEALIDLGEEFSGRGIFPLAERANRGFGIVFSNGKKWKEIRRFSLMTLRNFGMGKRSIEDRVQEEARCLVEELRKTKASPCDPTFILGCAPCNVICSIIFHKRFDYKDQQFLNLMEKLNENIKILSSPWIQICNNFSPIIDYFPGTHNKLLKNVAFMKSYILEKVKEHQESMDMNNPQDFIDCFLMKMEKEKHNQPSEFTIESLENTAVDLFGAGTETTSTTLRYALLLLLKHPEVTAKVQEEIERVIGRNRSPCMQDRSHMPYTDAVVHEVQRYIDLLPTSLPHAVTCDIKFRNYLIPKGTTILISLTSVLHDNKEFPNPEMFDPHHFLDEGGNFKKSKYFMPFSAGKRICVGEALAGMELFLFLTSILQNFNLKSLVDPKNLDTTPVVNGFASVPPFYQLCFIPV
[2] abbreviates: Cohort 2, 12 subjects, mild in severity.
Setting [3] is: rifampin cohort, 12 participants.

Regarding `N#Cc1ccc(N2N=C3c4ccc(C(=O)N5CCC(O)CC5)nc4CC[C@@H]3[C@@H]2C2CCCC2)cc1Cl` [Ocedurenone, ocedurenone], the “maximum inhibition of OATP1B1-mediated probe substrate accumulation” value on OATP1B1 (at 40 µM) was 72%. Further, the IC50 (commonly the concentration at which inhibition is half-maximal) at OATP1B1 (read-out: Inhibition results (IC50), OATP1B1 UPT, uptake assay) was determined as 21.9 µM. Besides, on OAT1, the “interaction with human OAT1 transporter (inhibition)” value was “No interaction”. The “treatment-emergent AEs considered related to ocedurenone” value in data set [1] (Cohort 1 (itraconazole cohort), 12 subjects) is given as “No treatment-emergent AEs; also recorded: no treatment-emergent adverse events”. Also, in data set [1] (setting [2]), the “number of treatment-emergent AEs considered related to the drug” value worked out at 5 and the “subjects with treatment-emergent AEs considered related to the drug” value was found to be 25.0%. In addition, in data set [1] (setting [3]), the “participants with headache (TEAE related to ocedurenone)” value came to 16.7%, the “participants with hyperhidrosis (TEAE related to ocedurenone)” value came to 8.3%, the “participants with nausea (TEAE related to ocedurenone)” value came to 8.3% and the “participants with nervousness (TEAE related to ocedurenone)” value worked out at 8.3%. In data set [1] (single 0.5-mg dose alone and with itraconazole or rifampin, healthy participants), the tolerability entry was “safe and well-tolerated”. Also, the “percent remaining activity of CYP2C9” value on CYP2C9 (ocedurenone at 200 μM) was determined as 70.2%. Also, the IC50 at CYP2C9 (read-out: IC50 CYP2C9, recombinant CYP) is above 200 µM. Also, the “inhibition category CYP2C9” value on CYP2C9 (recombinant enzyme) was “little or no inhibition”.
